Laboratory results published in the supplement of paper PMC4862054.

How the values were obtained:
Settings in all cases: incubation time: 72 h
[1] = test system: MFM-223; test: drug sensitivity score (DSS), CellTiter-Glo (DSS (AUC-based score)); higher = stronger drug effect (viability inhibition or cytotoxicity); extreme values may be limits of the assay
How it was run: (§1)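 Breast cancer cell lines, seeded as 20 µl suspension, were incubated 72 h with compound in 384-well plates at 5 concentrations in 10-fold steps over a 10,000-fold range set for each compound. Fluorescence from CellTox Green was read at 485/520 nm before CellTiter-Glo luminescence, which was read after 10 min at room temperature. Every plate was normalised to 0.1 % DMSO and a positive kill control, and the drug sensitivity score was taken from the area under the fitted dose-response curve.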

[2] = test system: CAL-120; test: as above
How it was run: as §1

[3] = test system: DU-4475; test: as above
How it was run: as §1

[4] = test system: HCC1143; test: as above
How it was run: as §1

[5] = test system: Hs578T; test: as above
How it was run: as §1

[6] = test system: BT-549; test: as above
How it was run: as §1

[7] = test system: HCC1937; test: as above
How it was run: as §1

[8] = test system: HDQ-P1; test: drug sensitivity score (DSS), CellTox Green (DSS (AUC-based score)); higher = stronger drug effect (viability inhibition or cytotoxicity); extreme values may be limits of the assay
How it was run: as §1

[9] = test system: MFM-223; test: as above
How it was run: as §1

[10] = test system: CAL-120; test: as above
How it was run: as §1

[11] = test system: CAL-148; test: as above
How it was run: as §1

[12] = test system: DU-4475; test: as above
How it was run: as §1

[13] = test system: HCC1599; test: as above
How it was run: as §1

[14] = test system: MDA-MB-231; test: as above
How it was run: as §1

[15] = test system: MDA-MB-436; test: as above
How it was run: as §1

[16] = test system: BT-474; test: as above
How it was run: as §1

[17] = test system: CAL-51; test: as above
How it was run: as §1

[18] = test system: MDA-MB-453; test: as above
How it was run: as §1

[19] = test system: HCC1143; test: as above
How it was run: as §1

[20] = test system: Hs578T; test: as above
How it was run: as §1

[21] = test system: MDA-MB-468; test: as above
How it was run: as §1

[22] = test system: BT-549; test: as above
How it was run: as §1

[23] = test system: HCC1937; test: as above
How it was run: as §1

[24] = test system: CAL-85-1; test: as above
How it was run: as §1

[25] = test system: MCF-10A; test: as above
How it was run: as §1

Cc1cccc(-c2nn3c(c2-c2ccnc4ccc(C(N)=O)cc24)CCC3)n1 [Galunisertib]
drug sensitivity score [1]: 0 | drug sensitivity score [2]: 0 | drug sensitivity score [3]: 0 | drug sensitivity score [4]: 0 | drug sensitivity score [5]: 0 | drug sensitivity score [6]: 0 | drug sensitivity score [7]: 0 | drug sensitivity score [8]: 0 | drug sensitivity score [9]: 0 | drug sensitivity score [10]: 0 | drug sensitivity score [11]: 0 | drug sensitivity score [12]: 0 | drug sensitivity score [13]: 0 | drug sensitivity score [14]: 0 | drug sensitivity score [15]: 0.892 | drug sensitivity score [16]: 0 | drug sensitivity score [17]: 0 | drug sensitivity score [18]: 0 | drug sensitivity score [19]: 0 | drug sensitivity score [20]: 0 | drug sensitivity score [21]: 0 | drug sensitivity score [22]: 0 | drug sensitivity score [23]: 0 | drug sensitivity score [24]: 0 | drug sensitivity score [25]: 0

Nc1cccc2c1CN(C1CCC(=O)NC1=O)C2=O (stereo not given) [Lenalidomide]
drug sensitivity score [1]: 0 | drug sensitivity score [2]: 2.82e-05 | drug sensitivity score [3]: 0 | drug sensitivity score [4]: 0 | drug sensitivity score [5]: 0 | drug sensitivity score [6]: 0 | drug sensitivity score [7]: 0 | drug sensitivity score [8]: 0 | drug sensitivity score [9]: 0 | drug sensitivity score [10]: 0 | drug sensitivity score [11]: 1.27 | drug sensitivity score [12]: 0 | drug sensitivity score [13]: 0 | drug sensitivity score [14]: 0 | drug sensitivity score [15]: 0 | drug sensitivity score [16]: 0 | drug sensitivity score [17]: 0 | drug sensitivity score [18]: 0 | drug sensitivity score [19]: 0 | drug sensitivity score [20]: 0 | drug sensitivity score [21]: 0 | drug sensitivity score [22]: 0 | drug sensitivity score [23]: 0 | drug sensitivity score [24]: 0 | drug sensitivity score [25]: 0

C[C@]12O[C@H](C[C@]1(O)CO)n1c3ccccc3c3c4c(c5c6ccccc6n2c5c31)CNC4=O [Lestaurtinib]
drug sensitivity score [1]: 4.3 | drug sensitivity score [2]: 7.69 | drug sensitivity score [3]: 8.11 | drug sensitivity score [4]: 2.04 | drug sensitivity score [5]: 3.6 | drug sensitivity score [6]: 7.26 | drug sensitivity score [7]: 2.31 | drug sensitivity score [8]: 0 | drug sensitivity score [9]: 0 | drug sensitivity score [10]: 0 | drug sensitivity score [11]: 0 | drug sensitivity score [12]: 0 | drug sensitivity score [13]: 4.55 | drug sensitivity score [14]: 0.0124 | drug sensitivity score [15]: 8.14 | drug sensitivity score [16]: 0.706 | drug sensitivity score [17]: 0 | drug sensitivity score [18]: 0 | drug sensitivity score [19]: 0 | drug sensitivity score [20]: 4.21 | drug sensitivity score [21]: 0 | drug sensitivity score [22]: 2.26 | drug sensitivity score [23]: 0 | drug sensitivity score [24]: 5.21 | drug sensitivity score [25]: 0

O=C1c2c(O)ccc(O)c2C(=O)c2c(NCCNCCO)ccc(NCCNCCO)c21 [Mitoxantrone]
drug sensitivity score [1]: 0 | drug sensitivity score [2]: 0 | drug sensitivity score [3]: 2.92 | drug sensitivity score [4]: 0.675 | drug sensitivity score [5]: 0 | drug sensitivity score [6]: 0 | drug sensitivity score [7]: 0 | drug sensitivity score [8]: 0 | drug sensitivity score [9]: 0 | drug sensitivity score [10]: 0 | drug sensitivity score [11]: 3.55 | drug sensitivity score [12]: 0 | drug sensitivity score [13]: 0 | drug sensitivity score [14]: 0 | drug sensitivity score [15]: 0 | drug sensitivity score [16]: 0 | drug sensitivity score [17]: 3.21 | drug sensitivity score [18]: 0 | drug sensitivity score [19]: 0 | drug sensitivity score [20]: 0 | drug sensitivity score [21]: 0 | drug sensitivity score [22]: 0 | drug sensitivity score [23]: 0 | drug sensitivity score [24]: 0 | drug sensitivity score [25]: 0

Nc1ccccc1NC(=O)c1ccc(CNc2nccc(-c3cccnc3)n2)cc1 [Mocetinostat]
drug sensitivity score [1]: 5.07 | drug sensitivity score [2]: 6.33 | drug sensitivity score [3]: 9 | drug sensitivity score [4]: 5.67 | drug sensitivity score [5]: 5.95 | drug sensitivity score [6]: 8.43 | drug sensitivity score [7]: 6.31 | drug sensitivity score [8]: 14.5 | drug sensitivity score [9]: 0 | drug sensitivity score [10]: 3.91 | drug sensitivity score [11]: 2.32 | drug sensitivity score [12]: 0 | drug sensitivity score [13]: 1.87 | drug sensitivity score [14]: 8.8 | drug sensitivity score [15]: 10.1 | drug sensitivity score [16]: 2.44 | drug sensitivity score [17]: 8.87 | drug sensitivity score [18]: 0 | drug sensitivity score [19]: 0.874 | drug sensitivity score [20]: 7.44 | drug sensitivity score [21]: 10.9 | drug sensitivity score [22]: 1.91 | drug sensitivity score [23]: 0.396 | drug sensitivity score [24]: 7.11 | drug sensitivity score [25]: 0

COc1nc(N)nc2c1ncn2[C@@H]1O[C@H](CO)[C@@H](O)[C@@H]1O [Nelarabine]
drug sensitivity score [1]: 0 | drug sensitivity score [2]: 0 | drug sensitivity score [3]: 0 | drug sensitivity score [4]: 0 | drug sensitivity score [5]: 0 | drug sensitivity score [6]: 0 | drug sensitivity score [7]: 0 | drug sensitivity score [8]: 0 | drug sensitivity score [9]: 0 | drug sensitivity score [10]: 0 | drug sensitivity score [11]: 0 | drug sensitivity score [12]: 0 | drug sensitivity score [13]: 0 | drug sensitivity score [14]: 0 | drug sensitivity score [15]: 0 | drug sensitivity score [16]: 0 | drug sensitivity score [17]: 0 | drug sensitivity score [18]: 0 | drug sensitivity score [19]: 0 | drug sensitivity score [20]: 0 | drug sensitivity score [21]: 0 | drug sensitivity score [22]: 0.855 | drug sensitivity score [23]: 0 | drug sensitivity score [24]: 0 | drug sensitivity score [25]: 0

Cc1ccc(Nc2nccc(N(C)c3ccc4c(C)n(C)nc4c3)n2)cc1S(N)(=O)=O [Pazopanib]
drug sensitivity score [1]: 6.2 | drug sensitivity score [2]: 0.234 | drug sensitivity score [3]: 0 | drug sensitivity score [4]: 0 | drug sensitivity score [5]: 0.162 | drug sensitivity score [6]: 2.29 | drug sensitivity score [7]: 0 | drug sensitivity score [8]: 0 | drug sensitivity score [9]: 0 | drug sensitivity score [10]: 0 | drug sensitivity score [11]: 0 | drug sensitivity score [12]: 0 | drug sensitivity score [13]: 0 | drug sensitivity score [14]: 0 | drug sensitivity score [15]: 0 | drug sensitivity score [16]: 0 | drug sensitivity score [17]: 0 | drug sensitivity score [18]: 0 | drug sensitivity score [19]: 1.06 | drug sensitivity score [20]: 0 | drug sensitivity score [21]: 0 | drug sensitivity score [22]: 0 | drug sensitivity score [23]: 0 | drug sensitivity score [24]: 0.186 | drug sensitivity score [25]: 0
